Test results reported in US20180251431A1 (VERTEX PHARMACEUTICALS INCORPORATED, priority 2016, published 2018).
Entries after “also recorded” stand apart in the source; their conditions may differ.

Tests used:
[1] = Metabolic intrinsic clearance in dog hepatocytes; assay type: in vitro ADME; conditions: beagle, cryopreserved hepatocytes in suspension, pH 7.5, 0.5 million cells/mL, incubation for 4 hours
Protocol: (§1) The metabolic intrinsic clearance (CLint) of Compound 87 was determined in human, monkey, dog, rat, and mouse hepatocytes. Cryopreserved human hepatocytes (Lot Hue50c), monkey hepatocytes (cynomolgus; Lot Cy328), dog hepatocytes (beagle, Lot Db235), rat hepatocytes (Sprague Dawley; NNH), and mouse hepatocytes (CD-1; Lot Mc522) were obtained from ThermoFisher (Paisley, UK). In separate experiments, compound 87 (1 μM) was incubated with hepatocytes from each species (0.5 million cells/mL, suspension) in Dulbecco's Modified Eagle's Medium (DMEM) supplemented with 4-(2-Hydroxyethyl)piperazine-1-ethanesulfonic acid (HEPES, 9 mM) and fructose (2.2 mM) (pH 7.5). Samples were quenched with acetonitrile and analyzed by LC-MS/MS. The mean CLint for Compound 87 in human, monkey, dog, rat, and mouse hepatocytes after incubation for 4 hours was determined to be ≤2.5, ≤2.5, 7.2, 23.6 and 10.7 μL/min/million cells. Based on these date, Compound 87 was low to moderately metabolized in hepatocytes in mouse, rat, dog, monkey, and human, and the rank order of stability at […] was approximately human>monkey>dog>mouse>rat. […] The metabolic stability of Compound 87 was not expected.

ABCD1 knockout (KO) mice = assay: Reduction of blood C26:0 LPC in vivo in ABCD1 knockout mice (DBS, LC-MS/MS); parameters: species or system mouse
Protocol: Bioanalysis of LPC in Whole Blood and Brain Tissue:
(§2) A LC-MS/MS method of analyzing Lysophosphatidylcholine (LPC) in whole blood (dried blood spot card, DBS) and brain tissue samples was developed for measuring the abundance of saturated C16, C18, C20, C22, C24 and C26 LPC in DBS and brain samples. Whole blood was collected with Whatman DMPK-C DBS card at an approximate volume of 20 μL at each time point. Brain tissue was collected at the end point of the study. Samples were prepared and LC-MS/MS analysis was performed as described below.
Sample Preparation for LPC Bioanalysis:
For DBS bioanalysis, the DBS card was punched at 3 mm in diameter using a semi-automated DBS card puncher. To each punched spot 200 μL of pure methanol was added. The vial was vortexed at low speed for 20 minutes and centrifuged at 4000 rpm for 20 minutes. The clear supernatant was injected onto LC-MS/MS for analysis. For brain tissue bioanalysis, brain tissue was collected in a tared homogenization tube pre-filled with metal bead and weighted. To each sample vial two parts weight of methanol was added. The sample was homogenized using Precellys-24 at 5000 rpm for 20 seconds with one cycle. A 100 mg aliquot of homogenate was used for analysis. To each sample vial 400 μL of pure methanol was added. The vial was vortexed at low speed for 20 minutes and centrifuged at 4000 rpm for 20 minutes. The clear supernatant was injected onto LC-MS/MS for analysis.
The supernatant obtained from each sample was injected into a LC-MS/MS system (Agilent Technologies, Santa Clara, Calif. and Applied Biosystems, Framingham, Mass.) for analysis. All six LPC components (C16:0, C18:0, C20:0, C22:0, C24:0 and C26:0) were chromatographically separated using a Series 1290 binary pump and a Phenomenex (Torrance, Calif.) Kinetex C18 analytical column (2.1×100 mm, 5 μm particle diameter) with a 10-min gradient. A 5% acetonitrile in water solution was used as the aqueous phase and a 40% acetonitrile/60% methanol solution in 1% 2 Mol ammonium acetate was used as the organic mobile phase for achieving the chromatographic analysis. LPCs were detected by an AB Sciex API-6500 triple quadrupole MS with electrospray ionization in the mode of multiple reaction monitoring. Ions of Q1 were monitored at m/z of 496.6, 524.6, 552.6, 580.6, 608.6 and 636.6 for LPC 16:0, LPC 18:0, LPC 20:0, LPC 22:0, LPC 24:0 and LPC 26:0, respectively. A common Q3 ion m/z of 184.2 was used for all LPC analyses. C16:0 LPC levels were expressed as a concentration. All other LPC levels were expressed relative to C16. A one-way ANOVA with Dunnett's multiple comparisons test was performed to assess differences in LPC levels among the different groups. A value of P≤0.05 was considered statistically significant. All statistical analyses were conducted using Prism Software version 7.01 (GraphPad, La Jolla, Calif.).
Dosing in ABCD1 Knockout Mice:
To determine the effect of Compound 87 on blood VLCFA levels, Compound 87 was administered to ABCD1 knockout (KO) mice, a model that reproduces the C26:0 VLCFA accumulation observed in ALD patients. Specifically, Compound 87 was administered orally (PO) QD at 1, 8, or 16 mg/kg to ABCD1 KO mice (n=5 per group). DBS were collected on day 0 (pre-dosing), and daily through 14 days of dosing. DBS cards were stored at 4° C. in sealed ziplock bags with desiccant until they could be analyzed for LPC using the sample preparation and LC-MS/MS as described above. The vehicle used was 2% D-α-Tocopherol polyethylene glycol 1000 succinate (TPGS) and Compound 87 doses were prepared in 2% TPGS. […] Interperitoneal dosing, at 2 or 20 mg/kg (data not shown) or oral (PO) dosing at 1, 8, or 16 mg/kg (FIG. 2A) yielded similar results. A dose response was observed between 1 and 8 mg/kg. […] Error bars indicate standard deviation.
Daily Oral Dosing in ABCD1 Knockout Mice: […]

[2] = system: wild-type male cynomolgus monkeys; assay: Reduction of blood C26:0 LPC in vivo in cynomolgus monkeys; parameters: species or system cynomolgus monkey; conditions: 30 mg/kg PO QD, after 7 days of dosing
Protocol: as §2
For DBS bioanalysis, the DBS card was punched at 3 mm in diameter using a semi-automated DBS card puncher. To each punched spot 200 μL of pure methanol was added. […]
The supernatant obtained from each sample was injected into a LC-MS/MS system (Agilent Technologies, Santa Clara, Calif. and Applied Biosystems, Framingham, Mass.) for analysis. […] LPCs were detected by an AB Sciex API-6500 triple quadrupole MS with electrospray ionization in the mode of multiple reaction monitoring. Ions of Q1 were monitored at m/z of 496.6, 524.6, 552.6, 580.6, 608.6 and 636.6 for LPC 16:0, LPC 18:0, LPC 20:0, LPC 22:0, LPC 24:0 and LPC 26:0, respectively. […] C16:0 LPC levels were expressed as a concentration. […]
The vehicle used was 2% TPGS and Compound 87 doses were prepared in 2% TPGS. […] DBS cards were stored at 4° C. until they could be analyzed for VLCFAs. DBS samples were prepared and analyzed using LC-MS/MS as described above.

[3] = Metabolic intrinsic clearance in rat hepatocytes; assay type: in vitro ADME; conditions: Sprague Dawley, cryopreserved hepatocytes in suspension, pH 7.5, 0.5 million cells/mL, incubation for 4 hours
Protocol: as §1

O=C(Nc1ccn(-c2ccnc(F)c2)n1)C1(c2ccccc2F)CC1 [Compound 87, 1-(2-fluorophenyl)-N-[1-(2-fluoro-4-pyridyl)pyrazol-3-yl]cyclopropanecarboxamide]
hepatocyte CLint at 1 μM [1]: 7.2 µL/min/1e6 cells
Plasma C26:0 LPC levels (ABCD1 knockout (KO) mice; ABCD1 KO mice, 1, 8, or 16 mg/kg PO QD for 14 days): dropped over the first 8 days before plateauing at near WT baseline levels
reduction in C24:0 and C26:0 LPC levels compared to vehicle controls (ABCD1 knockout (KO) mice; ABCD1 KO mice, blood (DBS), 0.5 mg/kg PO QD for 28 days): 50%
reduction in C26:0 LPC levels (dose response plateau) (ABCD1 knockout (KO) mice; ABCD1 KO mice, blood (DBS), plateau between the 4 mg/kg and 8 mg/kg doses, PO QD 28 days): approximately 75%
time for LPC levels to return to baseline levels after compound discontinuation (ABCD1 knockout (KO) mice; adult female ABCD1 KO mice, 1 or 8 mg/kg PO QD for 14 days, then discontinued): approximately 1 week
C26:0 LPC reducing effect after discontinuation of treatment (ABCD1 knockout (KO) mice; adult female ABCD1 KO mice, 1 or 8 mg/kg PO QD for 14 days, then discontinued, blood LPC followed another 2 weeks): reversible; also recorded: to about baseline level
C26:0 LPC/C16:0 LPC levels in the blood (ABCD1 knockout (KO) mice; female ABCD1 KO mice, 1 and 10 mg/kg PO QD, 3 months of dosing): maintained at near WT levels
reduction in C26:0 LPC levels in vivo (ABCD1 knockout (KO) mice; female ABCD1 KO mice, blood (DBS), 1 mg/kg PO QD for 3 months): ~65%
reduction in C26:0 LPC levels in vivo (ABCD1 knockout (KO) mice; female ABCD1 KO mice, blood (DBS), 10 mg/kg PO QD for 3 months): ~70%
reduction in blood C26:0 LPC [2]: ~50%
hepatocyte CLint at 1 μM [3]: 23.6 µL/min/1e6 cells
